The target in one experiment is T1, BTK (Homo sapiens, UniProt Q06187).
T1 construct: High control=Cell group with added DMSO and without compound, indicating microplate readings without BTK degradation; endogenous in cells; host or cells: TMD-8 cells
Put plainly: Cell Degradation: BTK degradation in TMD-8 cells, HTRF assay. In kind it is cell-based. As to conditions: 6 h treatment, IC50 (DC50) of BTK degradation. In a few lines:
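TMD-8 cells treated 6 h with 8-dose 6-fold dilutions in 0.2% DMSO, then lysed and BTK quantified by HTRF (665/620 nm). Degradation % normalised to high/low controls; DC50 from four-parameter fit, Dmax as maximal degradation.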
A general note: TR-FRET usually uses a lanthanide donor and a delayed reading to cut background.

For a further experiment, the system named is HEK-293 cells. The experiment can be described thus: HEK-293 Cytotoxicity Assay (CellTiter-Glo). In kind it is cell-based. As to conditions: Homo sapiens, HEK293, 72 h incubation, CellTiter-Glo luminescence. In a few lines: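 HEK-293 cells treated 72 h with 8 concentrations (4-fold dilutions, 0.2% DMSO final). Viability read by CellTiter-Glo luminescence; IC50 from four-parameter logistic fit of % inhibition.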
For orientation: In ATP-based viability assays light output follows the ATP content of the culture.

The structures appear in SMILES notation.

T1 sequence (Q06187 whole entry): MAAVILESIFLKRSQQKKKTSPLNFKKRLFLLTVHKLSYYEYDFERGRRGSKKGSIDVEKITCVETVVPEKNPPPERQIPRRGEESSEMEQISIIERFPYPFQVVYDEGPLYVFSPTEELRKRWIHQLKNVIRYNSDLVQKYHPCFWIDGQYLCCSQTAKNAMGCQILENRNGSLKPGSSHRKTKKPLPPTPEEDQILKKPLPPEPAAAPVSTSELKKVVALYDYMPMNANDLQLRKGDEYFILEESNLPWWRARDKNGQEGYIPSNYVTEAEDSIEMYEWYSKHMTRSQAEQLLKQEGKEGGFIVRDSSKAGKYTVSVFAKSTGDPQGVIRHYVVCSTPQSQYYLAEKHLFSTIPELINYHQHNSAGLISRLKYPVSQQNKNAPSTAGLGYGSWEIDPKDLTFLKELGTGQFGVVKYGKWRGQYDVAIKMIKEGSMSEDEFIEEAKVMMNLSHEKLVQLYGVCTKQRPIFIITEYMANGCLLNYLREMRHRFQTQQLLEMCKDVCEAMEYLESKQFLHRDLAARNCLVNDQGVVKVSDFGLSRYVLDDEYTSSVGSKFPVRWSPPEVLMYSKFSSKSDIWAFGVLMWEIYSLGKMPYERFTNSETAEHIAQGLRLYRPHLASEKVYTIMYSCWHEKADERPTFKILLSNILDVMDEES

As usually defined, the DC50 is the concentration giving 50% degradation. A low value points to a more potent degrader. In general, IC50 refers to the midpoint of a concentration-inhibition curve. Higher therefore signals a need for much substance. Compound `Cc1nn(C2CCN(CC3CCN(c4ccc(N5CCC(=O)NC5=O)cc4)CC3)CC2)c(C)c1-c1cc2c(-c3cc(CO)c([C@@H](C)NC(=O)c4noc(C(C)(C)C)n4)cc3F)ncnc2[nH]1` [Example 149, (R)-5-(tert-butyl)-N-(1-(4-(6-(1-(1-((1-(4-(2,4-dioxotetrahydropyrimidin-1(2H)-yl)phenyl)piperidin-4-yl)methyl)piperidin-4-yl)-3,5-dimethyl-1H-pyrazol-4-yl)-7H-pyrrolo[2,3-d]pyrimidin-4-yl)-5-fluoro-2-(hydroxymethyl)phenyl)ethyl)-1,2,4-oxadiazole-3-carboxamide] gave a DC50 on BTK of 0.27 nM. Also, in the experiment on HEK-293 cells, the IC50 is more than 10000 nM.

Turning to `CC(C)(C)c1noc(C(=O)N[C@@H]2CCc3cc(-c4ncnc5[nH]c(-c6ccc(N7CCN(CC8CCN(c9ccc(N%10CCC(=O)NC%10=O)cc9)CC8)CC7)cn6)cc45)ccc32)n1` [Example 150, (R)-3-(tert-butyl)-N-(5-(6-(5-(4-((1-(4-(2,4-dioxotetrahydropyrimidin-1(2H)-yl)phenyl)piperidin-4-yl)methyl)piperazin-1-yl)pyridin-2-yl)-7H-pyrrolo[2,3-d]pyrimidin-4-yl)-2,3-dihydro-1H-inden-1-yl)-1,2,4-oxadiazole-5-carboxamide], the DC50 on BTK stood at 1.64 nM. The same compound came in with an IC50 in the experiment with HEK-293 cells of more than 10000 nM.

`CC(C)(C)c1noc(C(=O)N[C@@H]2CCc3cc(-c4ncnc5[nH]c(-c6ccc(N7CCN(CC8CCN(c9ccc(N%10CCC(=O)NC%10=O)cc9)CC8)CC7)nc6)cc45)ccc32)n1` [Example 151, (R)-3-(tert-butyl)-N-(5-(6-(6-(4-((1-(4-(2,4-dioxotetrahydropyrimidin-1(2H)-yl)phenyl)piperidin-4-yl)methyl)piperazin-1-yl)pyridin-3-yl)-7H-pyrrolo[2,3-d]pyrimidin-4-yl)-2,3-dihydro-1H-inden-1-yl)-1,2,4-oxadiazole-5-carboxamide] displayed a 50% degradation concentration (DC50) at BTK of 3.24 nM. Besides, the IC50 with HEK-293 cells is more than 10000 nM.

Consider `Cc1cc(-c2ncnc3[nH]c(-n4nc(C)c(C5CCN(CC6CCN(c7ccc(N8CCC(=O)NC8=O)cc7)CC6)CC5)c4C)cc23)ccc1[C@@H](C)NC(=O)c1nc(C(C)(C)C)no1` [Example 152, (R)-3-(tert-butyl)-N-(1-(4-(6-(4-(1-((1-(4-(2,4-dioxotetrahydropyrimidin-1(2H)-yl)phenyl)piperidin-4-yl)methyl)piperidin-4-yl)-3,5-dimethyl-1H-pyrazol-1-yl)-7H-pyrrolo[2,3-d]pyrimidin-4-yl)-2-methylphenyl)ethyl)-1,2,4-oxadiazole-5-carboxamide], for which the DC50 at BTK was more than 2000 nM. In the experiment on HEK-293 cells, this compound gave a 50% inhibitory concentration (IC50) of 2460 nM.

`Cc1cc(-c2ncnc3[nH]c(-c4ccc(N5CCN(C6CC(c7ccc(C8CCC(=O)NC8=O)cc7)C6)CC5)cc4)cc23)ccc1[C@@H](C)NC(=O)c1nc(C(C)(C)C)no1` (stereo partly drawn) [Example 153, 3-(tert-butyl)-N-((1R)-1-(4-(6-(4-(4-(3-(4-(2,6-dioxopiperidin-3-yl)phenyl)cyclobutyl)piperazin-1-yl)phenyl)-7H-pyrrolo[2,3-d]pyrimidin-4-yl)-2-methylphenyl)ethyl)-1,2,4-oxadiazole-5-carboxamide] showed a half-maximal degradation concentration (DC50) on BTK of 2.02 nM. The same compound registered an IC50 with HEK-293 cells of 9580 nM.

At BTK, `C[C@@H](NC(=O)c1nc(C(C)(C)C)no1)c1ccc(-c2ncnc3[nH]c(-c4ccc(N5CCN(CC6CCN(c7ccc(N8CCC(=O)NC8=O)cc7)CC6)CC5)cn4)cc23)cc1F` [Example 154, (R)-3-(tert-butyl)-N-(1-(4-(6-(5-(4-((1-(4-(2,4-dioxotetrahydropyrimidin-1(2H)-yl)phenyl)piperidin-4-yl)methyl)piperazin-1-yl)pyridin-2-yl)-7H-pyrrolo[2,3-d]pyrimidin-4-yl)-2-fluorophenyl)ethyl)-1,2,4-oxadiazole-5-carboxamide] displayed a DC50 of 0.79 nM. This compound returned a half-inhibitory concentration (IC50) in the experiment with HEK-293 cells of more than 10000 nM.

In turn, `CC(C)(C)c1nc(C(=O)N[C@@H]2CCc3cc(-c4ncnc5[nH]c(-c6ccc(N7CCN(CC8CCN(c9ccc(N%10CCC(=O)NC%10=O)cc9)CC8)CC7)cc6)cc45)ccc32)no1` [Example 156, (R)-5-(tert-butyl)-N-(5-(6-(4-(4-((1-(4-(2,4-dioxotetrahydropyrimidin-1(2H)-yl)phenyl)piperidin-4-yl)methyl)piperazin-1-yl)phenyl)-7H-pyrrolo[2,3-d]pyrimidin-4-yl)-2,3-dihydro-1H-inden-1-yl)-1,2,4-oxadiazole-3-carboxamide] displayed a DC50 on BTK of 2.43 nM. This compound also showed an IC50 in the experiment with HEK-293 cells of more than 10000 nM.

Take `Cc1cc(-c2ncnc3[nH]c(-c4ccc(C5CN(CC6CCN(c7ccc(N8CCC(=O)NC8=O)cc7)CC6)C5)cc4)cc23)ccc1[C@@H](C)NC(=O)c1nc(C(C)(C)C)no1` [Example 157, (R)-3-(tert-butyl)-N-(1-(4-(6-(4-(1-((1-(4-(2,4-dioxotetrahydropyrimidin-1(2H)-yl)phenyl)piperidin-4-yl)methyl)azetidin-3-yl)phenyl)-7H-pyrrolo[2,3-d]pyrimidin-4-yl)-2-methylphenyl)ethyl)-1,2,4-oxadiazole-5-carboxamide]: the DC50 at BTK was 1.04 nM. The IC50 in the experiment with HEK-293 cells was more than 10000 nM.

On BTK, `Cc1cc(-c2ncnc3[nH]c(-c4ccc(C5CCN(CC6CCN(c7ccc(N8CCC(=O)NC8=O)cc7)CC6)C5)cc4)cc23)ccc1[C@@H](C)NC(=O)c1nc(C(C)(C)C)no1` (stereo partly drawn) [Example 158, 3-(tert-butyl)-N-((1R)-1-(4-(6-(4-(1-((1-(4-(2,4-dioxotetrahydropyrimidin-1(2H)-yl)phenyl)piperidin-4-yl)methyl)pyrrolidin-3-yl)phenyl)-7H-pyrrolo[2,3-d]pyrimidin-4-yl)-2-methylphenyl)ethyl)-1,2,4-oxadiazole-5-carboxamide] gave a 50% degradation concentration (DC50) of 1.12 nM. The concentration for half-maximal inhibition (IC50) in the experiment on HEK-293 cells amounted to 4040 nM.

In turn, `Cc1cc(-c2ncnc3[nH]c(-c4ccc(C5=CCN(CC6CCN(c7ccc(N8CCC(=O)NC8=O)cc7)CC6)C5)nc4)cc23)ccc1[C@@H](C)NC(=O)c1nc(C(C)(C)C)no1` [Example 159, (R)-3-(tert-butyl)-N-(1-(4-(6-(6-(1-((1-(4-(2,4-dioxotetrahydropyrimidin-1(2H)-yl)phenyl)piperidin-4-yl)methyl)-2,5-dihydro-1H-pyrrol-3-yl)pyridin-3-yl)-7H-pyrrolo[2,3-d]pyrimidin-4-yl)-2-methylphenyl)ethyl)-1,2,4-oxadiazole-5-carboxamide] registered a DC50 on BTK of 0.93 nM. For the same compound, the IC50 in the experiment with HEK-293 cells is more than 10000 nM.

`Cc1cc(-c2ncnc3[nH]c(-c4cnc(N5CCN(CC6CCN(c7ccc(N8CCC(=O)NC8=O)cc7)CC6)CC5)nc4)cc23)ccc1[C@@H](C)NC(=O)c1nc(C(C)(C)C)no1` [Example 160, (R)-3-(tert-butyl)-N-(1-(4-(6-(2-(4-((1-(4-(2,4-dioxotetrahydropyrimidin-1(2H)-yl)phenyl)piperidin-4-yl)methyl)piperazin-1-yl)pyrimidin-5-yl)-7H-pyrrolo[2,3-d]pyrimidin-4-yl)-2-methylphenyl)ethyl)-1,2,4-oxadiazole-5-carboxamide] had a DC50 at BTK of 1.25 nM. In addition, the IC50 with HEK-293 cells was more than 10000 nM.

Regarding `Cc1cc(-c2ncnc3[nH]c(-c4c(C)nn(C5CCN(C(=O)CNCC6CCN(c7ccc(N8CCC(=O)NC8=O)cc7)CC6)CC5)c4C)cc23)ccc1[C@@H](C)NC(=O)c1nc(C(C)(C)C)no1` [Example 161, (R)-3-(tert-butyl)-N-(1-(4-(6-(1-(1-(((1-(4-(2,4-dioxotetrahydropyrimidin-1(2H)-yl)phenyl)piperidin-4-yl)methyl)glycyl)piperidin-4-yl)-3,5-dimethyl-1H-pyrazol-4-yl)-7H-pyrrolo[2,3-d]pyrimidin-4-yl)-2-methylphenyl)ethyl)-1,2,4-oxadiazole-5-carboxamide], the DC50 on BTK was 0.92 nM. In the experiment on HEK-293 cells, the IC50 came out at 3550 nM.

On BTK, `Cc1cc(-c2ncnc3[nH]c(-c4ccc(C5CCN(CC6CCN(c7ccc(N8CCC(=O)NC8=O)cc7)CC6)C5)nc4)cc23)ccc1[C@@H](C)NC(=O)c1nc(C(C)(C)C)no1` (stereo partly drawn) [Example 162, 3-(tert-butyl)-N-((1R)-1-(4-(6-(6-(1-((1-(4-(2,4-dioxotetrahydropyrimidin-1(2H)-yl)phenyl)piperidin-4-yl)methyl)pyrrolidin-3-yl)pyridin-3-yl)-7H-pyrrolo[2,3-d]pyrimidin-4-yl)-2-methylphenyl)ethyl)-1,2,4-oxadiazole-5-carboxamide] registered a 50% degradation concentration (DC50) of 1.6 nM. In the experiment with HEK-293 cells, the IC50 was more than 10000 nM.

For the compound `Cc1cc(-c2ncnc3[nH]c(-c4c(C)nn(C5CCN(CC6CCN(c7ccc(N8CCC(=O)NC8=O)cc7)CC6)C5)c4C)cc23)ccc1[C@@H](C)NC(=O)c1nc(C(C)(C)C)no1` (stereo partly drawn) [Example 163, 3-(tert-butyl)-N-((1R)-1-(4-(6-(1-(1-((1-(4-(2,4-dioxotetrahydropyrimidin-1(2H)-yl)phenyl)piperidin-4-yl)methyl)pyrrolidin-3-yl)-3,5-dimethyl-1H-pyrazol-4-yl)-7H-pyrrolo[2,3-d]pyrimidin-4-yl)-2-methylphenyl)ethyl)-1,2,4-oxadiazole-5-carboxamide], it took 1.32 nM to reach half-maximal degradation on BTK (DC50). Also, the IC50 with HEK-293 cells was more than 10000 nM.

With `Cc1cc(-c2ncnc3[nH]c(-c4ccc(N5CC6(CN(CC7CCN(c8ccc(N9CCC(=O)NC9=O)cc8)CC7)C6)C5)cc4)cc23)ccc1[C@@H](C)NC(=O)c1nc(C(C)(C)C)no1` [Example 164, (R)-3-(tert-butyl)-N-(1-(4-(6-(4-(6-((1-(4-(2,4-dioxotetrahydropyrimidin-1(2H)-yl)phenyl)piperidin-4-yl)methyl)-2,6-diazaspiro[3.3]heptan-2-yl)phenyl)-7H-pyrrolo[2,3-d]pyrimidin-4-yl)-2-methylphenyl)ethyl)-1,2,4-oxadiazole-5-carboxamide], the DC50 on BTK came out at 1.26 nM. Also, in the experiment with HEK-293 cells, the IC50 was more than 10000 nM.
